According to US12064398B2, “Parenteral formulations” (Jazz Pharmaceuticals Research UK Limited, priority 2016, dated 2024):

Test: Solubility screening of CBD in solvents/diluents/surfactants
Format: physicochemical
Experimental: […] All the vials were sonicated tor 5 minutes and then left on a roller mixer, mixing for 48 hours. The roller mixer was covered with aluminium foil to prevent light exposure.
After 48 hours, all samples were centrifuged, and the supernatants taken (250 or 500 μL) using a Gilson pipette and added into a 10 ml volume flask. Methanol was used to make up the volume and the samples were tested by HPLC. Sample numbers 5, 9 and 10 were assayed using visual observation as the amount of API that could be added was so high.

Structure (SMILES): C=C(C)[C@@H]1CCC(C)=C[C@H]1c1c(O)cc(CCCCC)cc1O [CBD, cannabidiol]
- ASSAY CBD (Crodosal HS (0.5% w/v), HPLC): 2.6529 mg/mL
- ASSAY CBD (Crodosal HS (1% w/v), HPLC): 5.4462 mg/mL
- ASSAY CBD (Crodosal HS (2% w/v), HPLC): 5.0344 mg/mL
- ASSAY CBD (Crodosal HS (3% w/v), HPLC): 6.3465 mg/mL
- ASSAY CBD (Crodosal HS (4% w/v), HPLC): 7.5569 mg/mL
- ASSAY CBD (Crodosal HS (5% w/v), HPLC): 7.9983 mg/mL
- ASSAY CBD (ETOH (0.5% v/v), HPLC): 0.0496 mg/mL
- ASSAY CBD (ETOH (1% v/v), HPLC): 0.0426 mg/mL
- ASSAY CBD (ETOH (3% v/v), HPLC): 0.0054 mg/mL
- ASSAY CBD (ETOH (5% v/v), HPLC): 0.0244 mg/mL
- ASSAY CBD (ETOH (100% v/v), visual observation): >1000 mg/mL
- ASSAY CBD (Glucose (5% w/v), HPLC): 0.0008 mg/mL
- ASSAY CBD (Glucose (10% w/v), HPLC): 0.2379 mg/mL
- ASSAY CBD (Glycerol (10% v/v), HPLC): 0.0029 mg/mL
- ASSAY CBD (Glycerol (20% v/v), HPLC): 0.0437 mg/mL
- ASSAY CBD (Glycerol (40% v/v), HPLC): 0.0859 mg/mL
- ASSAY CBD (Mannitol (5% w/v), HPLC): 0.0009 mg/mL
- ASSAY CBD (Mannitol (10% w/v), HPLC): 0.0148 mg/mL
- ASSAY CBD (PEG400 (5% v/v), HPLC): 0.1596 mg/mL
- ASSAY CBD (PEG400 (15% v/v), HPLC): 0.1946 mg/mL
- ASSAY CBD (PEG400 (25% v/v), HPLC): 0.1617 mg/mL
- ASSAY CBD (PEG400 (100% v/v), visual observation): >400 mg/mL
- dissolution of the 10 mg of CBD added (PEG400 and ethanol increased to 50% in water): did not dissolve completely
- ASSAY CBD (PVP K12 (1% w/v), HPLC): 0.0615 mg/mL
- ASSAY CBD (PVP K12 (2% w/v), HPLC, high assay result probably due to sampling problem): 0.1746 mg/mL
- ASSAY CBD (PVP K12 (3% w/v), HPLC): 0.0639 mg/mL
- ASSAY CBD (PVP K12 (5% w/v), HPLC): 0.0157 mg/mL
- ASSAY CBD (PVP K17 (1% w/v), HPLC): 0.0031 mg/mL
- ASSAY CBD (PVP K17 (2% w/v), HPLC): 0.0433 mg/mL
- ASSAY CBD (PVP K17 (3% w/v), HPLC): 0.0409 mg/mL
- ASSAY CBD (PVP K17 (5% w/v), HPLC): 0.2360 mg/mL
- ASSAY CBD (Pluronic F68 (1% w/v), HPLC): 0.1403 mg/mL
- ASSAY CBD (Pluronic F68 (2% w/v), HPLC): 0.5209 mg/mL
- ASSAY CBD (Pluronic F68 (3% w/v), HPLC): 0.5042 mg/mL
- ASSAY CBD (Pluronic F68 (5% w/v), HPLC): 1.0654 mg/mL
- ASSAY CBD (Polysorbate 80 (0.5% w/v), HPLC): 3.2600 mg/mL
- ASSAY CBD (Polysorbate 80 (1% w/v), HPLC): 6.0415 mg/mL
- ASSAY CBD (Polysorbate 80 (3% w/v), HPLC): 22.9779 mg/mL
- ASSAY CBD (Polysorbate 80 (5% w/v), HPLC): 30.6529 mg/mL
- ASSAY CBD (Saline (0.45% w/v), HPLC): 0.0021 mg/mL
- ASSAY CBD (Saline (0.9% w/v), HPLC): 0.0551 mg/mL
- ASSAY CBD (Sucrose (5% w/v), HPLC): 0.0202 mg/mL
- ASSAY CBD (Sucrose (10% w/v), HPLC): 0.0822 mg/mL
- ASSAY CBD (Trehalose (5% w/v), HPLC): 0.0600 mg/mL
- ASSAY CBD (Trehalose (10% w/v), HPLC): 0.0124 mg/mL
- ASSAY CBD (t-butyl alcohol (TBA), (100% v/v), visual observation): >600 mg/mL
